From US7615380B2, “Methods for modulating an immune response by modulating KRC activity” (President and Fellows of Harvard College, priority 2001, dated 2009)

Legend:
[1] = system: IL-2; test: IL-2 ELISA in stably transfected Jurkat clones; format: cell-based, human; conditions: stable Jurkat clones, PMA and ionomycin
Description: In panel A Jurkat T cells were stably transfected with vector (pEF) or KRC expression plasmids. Stable clones were stimulated for 18 hours with PMA (50 ng/mL) plus ionomycin (2 μM) and IL-2 production was measured by ELISA. In panel B Primary CD4+ T cells were activated for 36 hours and subsequently transduced with control (RV), KRC, or KRC dominant negative (ZAS2) bicistronic GFP-expressing retroviruses. GFP-positive cells were sorted and stimulated for 24 hours with anti-CD3 or anti-CD3/anti-CD28 antibodies and IL-2 production was measured by ELISA. In panel C CD4 T cells from KRC +/+ or −/− mice were stimulated with anti-CD3 (1.0 μg/mL)/CD28 (0.5 μg/mL) antibodies for 24 hours and IL-2 production was measured by ELISA. In panel D CD4 T cells from KRC +/+ or −/− mice were stimulated with anti-CD3/CD28 antibodies for 72 hours in the presence of 200 U/mL human IL-2. IFNγ production was measured by ELISA.
In this example, increased IL-2 production in Jurkat T cells stably expressing KRC was measured by ELISA. IL-2 promoter activation requires antigen receptor engagement plus an accessory signal usually supplied by an antigen presenting cell (Jain, J., et al. (1995) Curr. Biol. 7:333-342). […] G418 drug-resistant Jurkat clones were expanded and analyzed for IL-2 secretion following activation.

[2] = system: NIH 3T3 cells; test: β-galactosidase cotransfection apoptosis assay in 3T3 cells; format: cell-based; conditions: TNFα 20 ng/ml
Description: 3T3 cells were cotransfected with CMV lacZ vector (300 ng per plate) and either empty expression vector or the expression vectors indicated (2 μg of each). Half of the transfected cultured cells were treated with TNFα (20 ng/ml) at 12 hours after the transfection and the other half left untreated. All the cells were fixed and stained at 36 hours after the transfection. The number of blue cells in each transfection was determined by counting six different fields. A representative experiment of three performed is presented.
β-galactosidase cotransfection assays for determination of cell death were performed as described (Hsu, et al.). Transfected NIH 3T3 cells were washed with PBS, fixed in PBS containing 3% paraformaldehyde for 10 min at 4° C., and washed with PBS. Fixed cells were stained overnight with XGal. The number of blue-stained cells was determined microscopically. The average number from one representative experiment of three is shown.

KRC: full-length KRC zinc finger protein (SEQ ID NO:2) overexpressed from an expression vector
IL-2 production [1]: substantially greater amounts of IL-2
TNFα-induced apoptosis (TNF mediated cytotoxicity) [2]: increase in TNF mediated cytotoxicity
